Laboratory results published in patent publication US5567722A, “Cyanoguanidines as K-channel blockers” (The Upjohn Company, priority 1995, dated 1996).
Like-named read-outs stand apart in the source and are kept apart here.

Assays:
[1] = test system: K+ channel of rabbit mesenteric artery (RMA); test: K+ channel antagonism: inhibition of pinacidil-induced relaxation of norepinephrine-contracted rabbit mesenteric artery (RMA) rings; format: cell-based
Experimental: The results for potassium channel blocking were obtained by using isolated rabbit mesenteric artery (RMA) procedures. Norepinephrine (5 μM) was used to contract the RMA rings twice, with an hour separating the two contractions. During this hour the tissues equilibrated in physiological salt solution at a resting tension of 1 gram. Upon the plateau of the second contraction 1 μM pinacidil was added to all tissues and the resulting relaxation time course was studied for thirty minutes. […] By studying the ability of the test compounds to inhibit this pinacidil-induced relaxation, the degree of potassium antagonism could be determined. The compounds were applied to the tissues for one hour between the two contractions and the pinacidil-induced relaxation was studied in the continuing presence of the compounds. Thus, the total time of pretreatment with the test compound was 75 minutes before the addition of pinacidil. […]
Data for K^+ channel antagonist activity on rabbit mesenteric artery (RMA) and natriuretic efficacy after […] (IP) administration to rats are collected in Tables III and IV. It was known, for example, that a compound where both methyl groups on the benzylic carbon of Example 9 had been removed was a weak PCO rather than a K^+ channel antagonist. Similarly a compound in which the phenyl was attached directly to the guanidine nitrogen was also a K^+ channel agonist.
^a This is a measure of a compound's ability to inhibit the relaxatio
of norepinephrine (5 μM) contracted rabbit mesenteric artery rings by
pinacidil (1 μM). It is expressed as percent inhibition (mean ± sem
at an inhibitor concentration of 5 μM. Compounds with 65% or g greater
inhibition at 5 μM are considered to be active, with 2065\% inhibition

[2] = Diuretic screen: 5 h net natriuretic efficacy (urinary Na+ excretion) in rats; format: in vivo, female Harlan Sprague-Dawley rats
[3] = test system: K+ channel; settings: 1 μM; norepinephrine-contracted RMA rings; cited from earlier work
[4] = Oryctolagus cuniculus, 0.25 h, Table III, inhibition of relaxation by pinacidil 1 μM at 15 min, mean ± sem (number of rings), >=65% considered active, <20% inactive, read-out: RMA K+ Channel Antagonism % I at 5 μM
[5] = Oryctolagus cuniculus, Table III footnote, read-out: RMA K+ channel antagonism, Percent inhibition at 1 μM
[6] = Oryctolagus cuniculus, Table III footnote, read-out: RMA K+ channel antagonism, Percent inhibition at 0.5 μM
[7] = Oryctolagus cuniculus, Table IV, lowest concentration giving >20% inhibition or lowest tested, read-out: RMA K+ Channel Antagonism % I (conc. μM)

SMILES: CC[C@H](NC(=NC#N)Nc1cccnc1)c1ccccc1 [Compound 20]
- inhibition at 5 µM [1, 4]: 13.9 ± 7.2%

SMILES: N#CN=C(Nc1cccnc1)N[C@H](CO)c1ccccc1 [Compound 27]
- inhibition at 5 µM [1, 4]: 92.5 ± 3.1%

SMILES: C[C@@H](NC(=NC#N)Nc1cccnc1)c1ccccc1 [Compound 1, (R)-N"-Cyano-N-(3-pyridyl)-N'-(1-phenyl)ethylguanidine]
- inhibition at 5 µM [1, 4]: 86.3 ± 5%
- inhibition at 1 µM [1, 5]: 17.1%
- inhibition at 2.5 µM ([1]; Oryctolagus cuniculus, Table III footnote, 2.5 μM, read-out: RMA K+ channel antagonism, Percent inhibition at 2.5 μM): 88.9 ± 11.2%

SMILES: CC(C)(C)C(NC(=NC#N)Nc1cccnc1)c1ccccc1 (centres unmarked) [Compound 13]
- inhibition at 5 µM [1, 4]: 83.2 ± 12%
- inhibition at 0.5 µM [1, 6]: 82 ± 1.8%

SMILES: N#CN=C(Nc1cccnc1)NC(c1ccccc1)C1CC1 (centres unmarked) [Compound 17, N"-Cyano-N-(3-pyridyl)-N'-phenylcyclopropylmethylguanidine]
- inhibition at 5 µM [1, 4]: 93.3 ± 2.2%

SMILES: Cc1cccc(C(C)NC(=NC#N)Nc2cccnc2)c1 (centres unmarked) [Compound 15]
- inhibition at 5 µM [1, 4]: 82 ± 3.9%

SMILES: CC(NC(=NC#N)Nc1cccnc1)c1cc(F)cc(F)c1 (centres unmarked) [Compound 40]
- inhibition at 0.5 µM [1, 7]: 55.5%

SMILES: CNc1ccc(NC(=NC#N)NC(C)c2ccccc2)cn1 (centres unmarked) [Compound 29]
- inhibition at 5 µM [1, 7]: 63.4%

SMILES: CN(C)c1ccc(NC(=NC#N)N[C@H](CO)c2ccccc2)cn1 [Compound 37]
- inhibition at 5 µM [1, 7]: 6.6%

SMILES: Cc1ccccc1C(C)NC(=NC#N)Nc1cccnc1 (centres unmarked) [Compound 14]
- inhibition at 5 µM [1, 4]: 58.7 ± 8.3%

SMILES: CCC(NC(=NC#N)Nc1cccnc1)c1cccc(Br)c1 (centres unmarked) [Compound 39]
- inhibition at 0.5 µM [1, 7]: 87.2%

SMILES: CC(NC(=NC#N)Nc1cccnc1)c1cccc(F)c1 (centres unmarked) [Compound 50]
- inhibition at 5 µM [1, 7]: 94.6%

SMILES: N#CN=C(Nc1ccc(N)nc1)NC1(c2ccccc2)CCC1 [Compound 46, N"-Cyano-N-(6-amino-3-pyridyl)-N'-(1-phenylcyclobutyl)guanidine]
- inhibition at 0.5 µM [1, 7]: 45%

SMILES: N#CN=C(Nc1cccnc1)NC1(c2ccccc2)CC=CC1 [Compound 3, N"-Cyano-N'-(1-phenylcyclopent-3-enyl)-N-(3-pyridyl)guanidine]
- inhibition at 5 µM [1, 4]: 91%

SMILES: CC(NC(=NC#N)Nc1ccc(N)nc1)c1ccccc1 (centres unmarked) [Compound 36]
- RMA K+ Channel Antagonism % I (conc. μM) ([1]; Table IV, concentration not printed (empty parentheses)): 66.5%

SMILES: CC(NC(=NC#N)Nc1cccnc1)c1cccc(C(F)(F)F)c1 (centres unmarked) [Compound 21]
- inhibition at 5 µM [1, 4]: 85.3 ± 3.2%

SMILES: CC(N/C(=N\C#N)Nc1ccncc1)C(C)(C)C (centres unmarked) [Pinacidil]
- inhibition at 5 µM [1, 4]: 0%
- diuretic response (in words) ([2]; 5 mg/kg oral dosage): Antidiuresis
- 5 h Net Natriuretic Efficacy ([2]; Table III, 5 mg/kg oral dosage (footnote j)): -60 μEq Na+/mg/kg
- K+ channel dependent vasodilation (in words) [3]: maximal K^+ channel dependent vasodilation

SMILES: CCN(CC)c1ccc(NC(=NC#N)N[C@H](C)c2ccccc2)cn1 [Compound 33]
- inhibition at 5 µM [1, 7]: 10.8%

SMILES: N#CN=C(Nc1cccnc1)NC(c1ccccc1)C1CCC1 (centres unmarked) [Compound 19]
- inhibition at 5 µM [1, 4]: 96 ± 2.1%

SMILES: N#CN=C(Nc1cccnc1)NC1(c2cccc(Cl)c2)CCC1 [Compound 45, N'-[1-(3-Chlorophenyl)cyclobutyl]-N"-cyano-N-(3-pyridyl)guanidine]
- inhibition at 0.05 µM [1, 7]: 91%

SMILES: C[C@@H](NC(=NC#N)Nc1ccc[n+]([O-])c1)c1ccccc1 [Compound 55, (R)-N"-Cyano-N'-(1-phenylethyl)-N-(3-pyridyl)guanidine, pyridine N-oxide]
- inhibition at 5 µM [1, 7]: 16.3%

SMILES: CC(NC(=NC#N)Nc1cccnc1)c1cc(Cl)ccc1Cl (centres unmarked) [Compound 24]
- inhibition at 5 µM [1, 4]: 86.9 ± 4%

SMILES: C[C@H](NC(=NC#N)Nc1cccnc1)c1ccccc1 [Compound 8]
- inhibition at 5 µM [1, 4]: 22.1 ± 21.2%

SMILES: CCC(NC(=NC#N)Nc1cccnc1)c1cccc(F)c1 (centres unmarked) [Compound 38]
- inhibition at 0.5 µM [1, 7]: 68.6%

SMILES: CCC(NC(=NC#N)Nc1cccnc1)c1ccccc1 (centres unmarked) [Compound 2, N"-Cyano-N-(3-pyridyl)-N'-(1-phenyl)propylguanidine]
- inhibition at 5 µM [1, 4]: 78.8 ± 3.9%
- inhibition at 1 µM [1, 5]: 25.6 ± 17.2%

SMILES: CC(NC(=NC#N)Nc1cccnc1)c1cccc(Cl)c1 (centres unmarked) [Compound 25]
- inhibition at 5 µM [1, 4]: 89.9 ± 0.1%

SMILES: CCC(NC(=NC#N)Nc1ccc(NC(C)=O)nc1)c1ccccc1 (centres unmarked) [Compound 30]
- inhibition at 5 µM [1, 7]: 0%

SMILES: CCC(NC(=NC#N)Nc1cccnc1)c1cccc(Cl)c1 (centres unmarked) [Compound 52]
- inhibition at 0.5 µM [1, 7]: 94%

SMILES: COCCCNc1ccc(NC(=NC#N)N[C@H](C)c2ccccc2)cn1 [Compound 57]
- inhibition at 5 µM [1, 7]: 7.8%

SMILES: CC[C@@H](NC(=NC#N)Nc1ccc(N)nc1)c1ccccc1 [Compound 44, (R)-N-(6-Amino-3-pyridyl)-N"-cyano-N'-(1-phenylpropyl)guanidine]
- inhibition at 5 µM [1, 7]: 60%

SMILES: CC(C)Nc1ccc(NC(=NC#N)N[C@H](C)c2ccccc2)cn1 [Compound 59]
- inhibition at 5 µM [1, 7]: 8.5%

SMILES: N#CN=C(Nc1cccnc1)NC1(c2ccccc2)CCC1 [Compound 51, N"-Cyano-N-(3-pyridyl)-N'-(1-phenylcyclobutyl)guanidine]
- inhibition at 0.5 µM [1, 7]: 82.9%

SMILES: CC(NC(=NC#N)Nc1cccnc1)c1cccc(F)c1F (centres unmarked) [Compound 58]
- inhibition at 0.5 µM [1, 7]: 92.1%

SMILES: CC(NC(=NC#N)Nc1cccnc1)c1ccc(Cl)c(Cl)c1 (centres unmarked) [Compound 23]
- inhibition at 5 µM [1, 4]: 90.8 ± 2.8%

SMILES: N#CN=C(Nc1cccnc1)NC(c1ccccc1)C1CCCC1 (centres unmarked) [Compound 18]
- inhibition at 5 µM [1, 4]: 88.1 ± 2%

SMILES: CCCC(NC(=NC#N)Nc1cccnc1)c1ccccc1 (centres unmarked) [Compound 28]
- inhibition at 5 µM [1, 4]: 85.2 ± 4.8%

SMILES: CCC(NC(=NC#N)Nc1cccnc1)c1cccc(I)c1 (centres unmarked) [Compound 41]
- inhibition at 5 µM [1, 7]: 90.1%

SMILES: N#CN=C(Nc1cccnc1)NC1(c2cccc(F)c2)CCC1 [Compound 42]
- inhibition at 0.05 µM [1, 7]: 50%

SMILES: COCC(NC(=NC#N)Nc1cccnc1)c1ccccc1 (centres unmarked) [Compound 16]
- inhibition at 5 µM [1, 4]: 51.1 ± 11.6%

SMILES: CC(C)C(NC(=NC#N)Nc1cccnc1)c1ccccc1 (centres unmarked) [Compound 12]
- inhibition at 5 µM [1, 4]: 85.5 ± 0.6%
- inhibition at 0.5 µM [1, 6]: 43.6%
- inhibition at 1 µM [1, 5]: 78.2 ± 1.9%

SMILES: CC[C@@H](NC(=NC#N)Nc1cccnc1)c1ccccc1 [Compound 22, (R) N"-Cyano-N-(3-pyridyl)-N'-(1-phenylpropyl)guanidine]
- inhibition at 5 µM [1, 4]: 89 ± 3.2%
- inhibition at 0.1 µM ([1]; Oryctolagus cuniculus, Table III footnote, 0.1 μM, read-out: RMA K+ channel antagonism, Percent inhibition at 0.1 μM): 5 ± 2%
- inhibition at 0.25 µM ([1]; Oryctolagus cuniculus, Table III footnote, 0.25 μM, read-out: RMA K+ channel antagonism, Percent inhibition at 0.25 μM): 52 ± 1%
- inhibition at 0.5 µM [1, 6]: 81.5 ± 5.9%

SMILES: N#CN=C(Nc1cccnc1)N[C@@H](CO)c1ccccc1 [Compound 4, (R)-N"-Cyano-N'-(2-hydroxy-1-phenylethyl)-N-(3-pyridyl)guanidine]
- inhibition at 5 µM [1, 4]: 2.6 ± 1.7%

SMILES: N#CN=C(Nc1cccnc1)NC1(c2ccccc2)CC1 [Compound 63]
- inhibition at 5 µM [1, 7]: 86%

SMILES: N#CN=C(Nc1cccnc1)NC1(c2ccccc2)CCCCC1 [Compound 10]
- inhibition at 5 µM [1, 4]: 85.5 ± 2.2%

SMILES: CCNc1ccc(NC(=NC#N)N[C@H](C)c2ccccc2)cn1 [Compound 56]
- inhibition at 5 µM [1, 7]: 19.1%

SMILES: N#CN=C(Nc1cccnc1)NC1(c2cccc(Br)c2)CCC1 [Compound 31]
- inhibition at 0.05 µM [1, 7]: 50%

SMILES: N#CN=C(Nc1cccnc1)NC1(c2ccccc2)CCCC1 [Compound 11]
- inhibition at 5 µM [1, 4]: 90.4 ± 2.3%
- inhibition at 0.5 µM [1, 6]: 78.8 ± 4.4%

SMILES: CC(NC(=NC#N)Nc1cccnc1)c1ccccc1Cl (centres unmarked) [Compound 26]
- inhibition at 5 µM [1, 4]: 74.7 ± 2.7%

SMILES: N#CN=C(Nc1cccnc1)NC1(c2cccc(Cl)c2F)CCC1 [Compound 32]
- inhibition at 0.05 µM [1, 7]: 66%

SMILES: CC[C@@H](NC(=NC#N)Nc1ccc(N(C)C)nc1)c1ccccc1 [Compound 53, (R)-N"-Cyano-N'-(1-phenylpropyl)-N-[6-(dimethylamino)-3-pyridyl]guanidine]
- inhibition at 5 µM [1, 7]: 4.1%

SMILES: CCC(NC(=NC#N)Nc1cccnc1)c1ccccc1F (centres unmarked) [Compound 43]
- inhibition at 0.05 µM [1, 7]: 30%

SMILES: C[C@@H](NC(=NC#N)Nc1ccc(N(C)C)nc1)c1ccccc1 [Compound 35]
- inhibition at 5 µM [1, 7]: 10.6%

SMILES: C[C@@H](NC(=NC#N)Nc1ccc(Cl)nc1)c1ccccc1 [Compound 34]
- inhibition at 1 µM [1, 7]: 49.5%

SMILES: N#CN=C(Nc1cccnc1)NC1(c2cccc(F)c2F)CCC1 [Compound 48]
- inhibition at 0.05 µM [1, 7]: 45%

SMILES: CC(C)(NC(=NC#N)Nc1cccnc1)c1ccccc1 [Compound 9]
- inhibition at 5 µM [1, 4]: 89.5 ± 3.6%

SMILES: CCC(NC(=NC#N)Nc1ccc[n+]([O-])c1)c1ccccc1 (centres unmarked) [Compound 54, N"-Cyano-N'-(1-phenylpropyl)-N-(3-pyridyl)guanidine, pyridine N-oxide]
- inhibition at 5 µM [1, 7]: 15.4%

SMILES: N#CN=C(Nc1ccc(N)nc1)NC1(c2cccc(F)c2)CCC1 [Compound 47]
- inhibition at 0.05 µM [1, 7]: 79%

SMILES: CC(NC(=NC#N)Nc1cccnc1)c1ccccc1 (racemic) [Compound 7, N"-Cyano-N-(3-pyridyl)-N'-(1-phenyl)ethylguanidine]
- inhibition at 5 µM [1, 4]: 65.3 ± 10.2%
